Legend:
[1] = biological target: GSPT1 (Homo sapiens, UniProt P15170+Q96SW2); experiment: HiBiT degradation assay, GSPT1, Procedure B (Molt 4_hGSPT1_HiBIT cells); format: cell-based; parameters: Molt 4_hGSPT1_HiBIT N-terminus tagged cells were generated using CRISPR technology; endogenous in cells; host or cells: Molt 4 cells, CRISPR-edited; conditions: six hours
Method: Molt 4_hGSPT1_HiBIT N-terminus tagged cells were generated using CRISPR technology. Cells were maintained in RPMI media (Thermo Fisher Scientific, Catalog #11875-093) containing 10% Fetal Bovine Serum (Thermo Fisher Scientific, Catalog #16140071) 1% Penicillin-Streptomycin (Thermo Fisher Scientific, Catalog #25200056). Cells were maintained at 37° C. in a 5% CO2 environment.
Compounds were spotted onto Cornin 384-Well, Cell Culture-Treated, Flat-Bottom, Low Flange Microplate (Fisher Scientific, Catalog #07-201-013) using a Tecan D300e digital dispenser. Ten-point dose response curves spanning from 10 μM to 0.005 μM with a 0.1% DMSO tolerance were used.
Cells were centrifuged for 5 minutes at 1200 RPMs. Cell culture media was aspirated off and cells were resuspended with RPMI+10% FBS. Cell density was determined using a Denovix CellDrop BF cell counter. Cell density was adjusted to 1×10^6 cells/ml. 40 μl of cells was added to compound treated tissue culture plates and incubated for six hours at 37° C. After six hours, cell culture plates were removed from tissue culture incubator and cooled to room temperature. 40 μl of Nano-GloHiBiT Lytic Detection Reagent (Promega, Catalog #N3040) was added to each well. Plates were placed on an orbital shaker (600 rpm) for 20 minutes. Luminescence was measured using an Envsion plate reader (Perkin Elmer). IC50 curves and Ymin were generated using a 4-parameter curve fit with GraphPad Prism software (Prism Corporation).
Results from the HiBiT assay (DC50 (nM) and Ymin (% remaining)) are shown below. All CK1α data was generated according to Procedure A. GSPT1 data for Examples 1-600, 603-620 and 703-705 was generated according to Procedure A. GSPT1 data for Examples 601, 621-702 and 706-735 was generated according to Procedure B.

[2] = biological target: T1, CK1α (Homo sapiens, UniProt P48729+Q96SW2); experiment: HiBiT degradation assay, CK1α, Procedure A; format: cell-based; conditions: six hours
T1 construct: CSNK1A1-HiBit KI HEK293(LgBit) Cells; host or cells: HEK293(LgBit) knock-in cells
T1 sequence (P48729 whole entry): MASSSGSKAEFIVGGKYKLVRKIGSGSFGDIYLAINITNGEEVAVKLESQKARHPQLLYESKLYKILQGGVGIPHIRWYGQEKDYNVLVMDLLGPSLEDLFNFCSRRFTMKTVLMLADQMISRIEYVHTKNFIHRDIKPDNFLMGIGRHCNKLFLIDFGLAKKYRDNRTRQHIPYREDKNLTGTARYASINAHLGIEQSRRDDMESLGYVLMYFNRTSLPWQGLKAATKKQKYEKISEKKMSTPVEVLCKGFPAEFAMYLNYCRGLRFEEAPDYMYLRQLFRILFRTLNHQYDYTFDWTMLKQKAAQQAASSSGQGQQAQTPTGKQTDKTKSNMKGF
T1 sequence (Q96SW2 whole entry): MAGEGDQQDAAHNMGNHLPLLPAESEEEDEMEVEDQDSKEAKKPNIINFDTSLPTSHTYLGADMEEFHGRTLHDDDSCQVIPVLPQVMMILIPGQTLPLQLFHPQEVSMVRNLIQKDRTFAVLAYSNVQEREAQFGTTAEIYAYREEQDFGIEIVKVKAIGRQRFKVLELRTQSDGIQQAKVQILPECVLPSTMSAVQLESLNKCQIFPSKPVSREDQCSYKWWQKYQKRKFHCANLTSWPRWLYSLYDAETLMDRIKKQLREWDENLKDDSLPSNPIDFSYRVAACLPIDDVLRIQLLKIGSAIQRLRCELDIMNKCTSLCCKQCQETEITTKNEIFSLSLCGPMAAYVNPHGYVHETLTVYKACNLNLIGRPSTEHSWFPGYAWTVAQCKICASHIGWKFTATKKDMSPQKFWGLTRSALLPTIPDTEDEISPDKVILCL
T1 sequence (Q16531 whole entry partner): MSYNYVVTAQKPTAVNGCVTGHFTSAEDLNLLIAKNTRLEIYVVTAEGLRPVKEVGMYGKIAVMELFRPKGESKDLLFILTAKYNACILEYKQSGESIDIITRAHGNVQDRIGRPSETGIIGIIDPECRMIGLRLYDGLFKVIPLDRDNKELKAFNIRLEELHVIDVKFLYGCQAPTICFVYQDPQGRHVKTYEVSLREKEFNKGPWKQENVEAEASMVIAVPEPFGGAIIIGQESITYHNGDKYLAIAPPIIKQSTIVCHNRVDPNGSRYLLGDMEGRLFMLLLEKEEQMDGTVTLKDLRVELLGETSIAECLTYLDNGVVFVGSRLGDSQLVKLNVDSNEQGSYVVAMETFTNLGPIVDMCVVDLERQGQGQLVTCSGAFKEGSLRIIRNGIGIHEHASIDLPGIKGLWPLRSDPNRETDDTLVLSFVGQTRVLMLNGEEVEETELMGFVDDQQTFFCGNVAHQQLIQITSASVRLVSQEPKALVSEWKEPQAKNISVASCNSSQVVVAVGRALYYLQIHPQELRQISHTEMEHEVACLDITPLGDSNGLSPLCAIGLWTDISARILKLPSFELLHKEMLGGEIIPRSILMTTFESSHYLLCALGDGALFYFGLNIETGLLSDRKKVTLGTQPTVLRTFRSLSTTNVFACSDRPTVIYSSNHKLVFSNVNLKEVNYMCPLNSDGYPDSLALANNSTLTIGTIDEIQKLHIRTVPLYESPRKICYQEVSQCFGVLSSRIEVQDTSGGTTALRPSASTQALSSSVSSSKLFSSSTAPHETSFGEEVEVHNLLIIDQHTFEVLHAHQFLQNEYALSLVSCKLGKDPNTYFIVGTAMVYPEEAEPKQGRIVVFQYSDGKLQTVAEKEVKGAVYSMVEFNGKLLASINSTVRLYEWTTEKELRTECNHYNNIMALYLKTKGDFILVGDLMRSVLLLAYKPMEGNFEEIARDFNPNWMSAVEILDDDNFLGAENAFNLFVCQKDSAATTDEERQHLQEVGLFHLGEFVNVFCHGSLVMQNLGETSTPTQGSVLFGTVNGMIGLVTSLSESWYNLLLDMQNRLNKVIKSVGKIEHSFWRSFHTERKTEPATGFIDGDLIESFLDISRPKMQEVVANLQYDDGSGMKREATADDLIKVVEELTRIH
Summary of the method: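 Cells in DMEM+10% FBS at 1×10^6 cells/ml were added to pre-spotted compound (10-point dose response, 10 μM to 0.005 μM, 0.1% DMSO) and incubated 6 h at 37° C. Nano-Glo HiBiT lytic reagent was added and luminescence read. DC50 and Ymin came from 4-parameter curve fits.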

GSPT1, sequence (P15170 whole entry): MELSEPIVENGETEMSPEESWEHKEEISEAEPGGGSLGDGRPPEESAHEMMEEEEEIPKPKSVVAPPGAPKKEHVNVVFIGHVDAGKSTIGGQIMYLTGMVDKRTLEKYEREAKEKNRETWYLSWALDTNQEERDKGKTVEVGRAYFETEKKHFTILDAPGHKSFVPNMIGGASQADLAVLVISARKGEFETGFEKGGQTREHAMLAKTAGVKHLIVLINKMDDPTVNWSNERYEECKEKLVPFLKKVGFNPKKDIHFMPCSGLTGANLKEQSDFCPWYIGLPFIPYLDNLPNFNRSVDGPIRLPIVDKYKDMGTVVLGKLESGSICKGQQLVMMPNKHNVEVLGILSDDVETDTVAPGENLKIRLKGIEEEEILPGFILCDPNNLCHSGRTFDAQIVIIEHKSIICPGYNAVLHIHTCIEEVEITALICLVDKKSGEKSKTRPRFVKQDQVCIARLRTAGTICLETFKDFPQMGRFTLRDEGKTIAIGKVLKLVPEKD
GSPT1, sequence (Q96SW2 whole entry): as the sequence (Q96SW2 whole entry) above
GSPT1, sequence (Q16531 whole entry partner): as the sequence (Q16531 whole entry partner) above

Row | SMILES | DC50 [1] [nM] | GSPT1 Ymin [1] | CK1α Ymin [2] | DC50 [2] [nM]
1 | Cn1cc(-c2ccc3c(c2)CN(C2CCC(=O)NC2=O)C3=O)nc1-c1ccncc1 (stereo not shown) [Example 630] | ≥ 25 | F (F = >75-100% remaining) | C (C = 0-10% remaining) | ≥ 25
2 | Cn1cc(-c2ccc3c(c2)CN(C2CCC(=O)NC2=O)C3=O)nc1-c1cccc(F)c1 (stereo not shown) [Example 631] | ≥ 25 | F (F = >75-100% remaining) | C (C = 0-10% remaining) | < 25
3 | Cn1cc(-c2ccc3c(c2)CN(C2CCC(=O)NC2=O)C3=O)nc1-c1cccc(C#N)c1 (stereo not shown) [Example 632] | ≥ 25 | F (F = >75-100% remaining) | D (D = >10- 25% remaining) | < 25
4 | Cn1cc(-c2ccc3c(c2)CN(C2CCC(=O)NC2=O)C3=O)nc1-c1ccc(C#N)cc1 (stereo not shown) [Example 633] | < 25 | F (F = >75-100% remaining) | D (D = >10- 25% remaining) | < 25
5 | Cn1cc(-c2ccc3c(c2)CN(C2CCC(=O)NC2=O)C3=O)nc1-c1ccccc1N (stereo not shown) [Example 634] | ≥ 25 | E (E = >25-75% remaining) | C (C = 0-10% remaining) | < 25
6 | Cn1cc(-c2ccc3c(c2)CN(C2CCC(=O)NC2=O)C3=O)nc1-c1cccc(Cl)c1 (stereo not shown) [Example 635] | ≥ 25 | F (F = >75-100% remaining) | C (C = 0-10% remaining) | < 25
7 | Cn1cc(-c2ccc3c(c2)CN(C2CCC(=O)NC2=O)C3=O)nc1-c1cccc(CO)c1 (stereo not shown) [Example 636] | ≥ 25 | F (F = >75-100% remaining) | C (C = 0-10% remaining) | ≥ 25
8 | Cn1cc(-c2ccc3c(c2)CN(C2CCC(=O)NC2=O)C3=O)nc1-c1cccc(OC(F)(F)F)c1 (stereo not shown) [Example 637] | < 25 | F (F = >75-100% remaining) | D (D = >10- 25% remaining) | < 25
9 | COc1cc(Cl)ccc1-c1nc(-c2ccc3c(c2)CN(C2CCC(=O)NC2=O)C3=O)cn1C (stereo not shown) [Example 638] | < 25 | F (F = >75-100% remaining) | C (C = 0-10% remaining) | < 25
10 | Cn1cc(-c2ccc3c(c2)CN(C2CCC(=O)NC2=O)C3=O)nc1-c1ccccc1Cl (stereo not shown) [Example 639] | ≥ 25 | E (E = >25-75% remaining) | C (C = 0-10% remaining) | < 25
11 | Cc1ccc(Cl)cc1-c1nc(-c2ccc3c(c2)CN(C2CCC(=O)NC2=O)C3=O)cn1C (stereo not shown) [Example 640] | ≥ 25 | F (F = >75-100% remaining) | C (C = 0-10% remaining) | < 25
12 | Cn1cc(-c2ccc3c(c2)CN(C2CCC(=O)NC2=O)C3=O)nc1-c1cccc(F)c1C#N (stereo not shown) [Example 641] | ≥ 25 | F (F = >75-100% remaining) | C (C = 0-10% remaining) | < 25
13 | Cn1cc(-c2ccc3c(c2)CN(C2CCC(=O)NC2=O)C3=O)nc1-c1cccc(O)c1 (stereo not shown) [Example 642] | < 25 | E (E = >25-75% remaining) | C (C = 0-10% remaining) | ≥ 25
14 | COc1ccc(Cl)cc1-c1nc(-c2ccc3c(c2)CN(C2CCC(=O)NC2=O)C3=O)cn1C (stereo not shown) [Example 643] | ≥ 25 | F (F = >75-100% remaining) | D (D = >10- 25% remaining) | < 25
15 | Cn1cc(-c2ccc3c(c2)CN(C2CCC(=O)NC2=O)C3=O)nc1-c1ccc(Cl)cc1F (stereo not shown) [Example 644] | ≥ 25 | F (F = >75-100% remaining) | D (D = >10- 25% remaining) | < 25
16 | Cn1cc(-c2ccc3c(c2)CN(C2CCC(=O)NC2=O)C3=O)nc1-c1ccc(F)c(Cl)c1 (stereo not shown) [Example 645] | ≥ 25 | F (F = >75-100% remaining) | D (D = >10- 25% remaining) | < 25

From patent US20240158370A1, “CK1 alpha AND DUAL CK1 alpha / GSPT1 DEGRADING COMPOUNDS” (Innovo Therapeutics, Inc., priority 2022, published 2024)
